Measured values taken from PMC6010070, “Antinociceptive potency of a fluorinated cyclopeptide Dmt-c[D-Lys-Phe-p-CF3-Phe-Asp]NH2” (Journal of Enzyme Inhibition and Medicinal Chemistry, 2018).
Read-outs that look alike come from different tables or passages of the source. Bridge positions count the residues as written; N and C are the ends. Square brackets hold non-standard residues; d marks the D form. Peptide text beside a SMILES is read from it. Phe(4-CF3) = N[C@@H](Cc1ccc(C(F)(F)F)cc1)C(=O)O; Dmt = Cc1cc(O)cc(C)c1C[C@H](N)C(=O)O

Tests used:
Kinetic solubility assay = assay type: physicochemical; details: PBS buffer, pH 7.4
Experimental: Kinetic solubility assay was performed using Multiscreen HTS Vacuum Manifold (Merck Millipore, Warsaw, Poland). Compounds for this test were prepared as 10 mM stock solutions in DMSO and diluted in a standard PBS buffer (pH = 7.4), to the final concentrations of 0.5 mM. The solutions were applied into a 96-well filter plate and incubated for 90 min at room temperature, while shaking at 40 g and then filtrated. The concentration of each compound was determined on the basis of the prepared calibration curve using the UV–VIS spectrophotometric method. According to the absorption spectra of the compounds the wavelength used for the measurements was 280 nm for both, C-36 and F-81.

[1] = for BBB permeability Pe ± SD: brain polar lipid extract, 200 µM, 4 h, room temperature; for Classification (BBB permeation): classified by Pe
Experimental: Parallel Artificial Membrane Permeability Assay (PAMPA) was performed using Multiscreen Filter Plate and Multiscreen Transport Receiver Plate (Merck Millipore, Warsaw, Poland). Tested, as well as reference compounds, were dissolved in 0.1 M PBS buffer containing 20% of ethanol, to the final concentration of 200 µM. A 300 µl aliquots of 0.1 M PBS solution (pH = 7.4) was dispensed into the wells of the […]. Then 1% n-dodecane solution of the brain polar lipid extract (Avanti Polar Lipids; Sigma Aldrich, Poznan, Poland) was prepared to investigate the blood–brain barrier (BBB) permeability. Aliquots of the obtained lipid solutions (5 µl) were dispensed on the membranes of wells of the donor plate and left to dry. […] A complete system, consisting of the receiver plate with inserted donor plate, was incubated at room temperature for 4 h, shaking at 40 g, to guarantee good solvent mixing.
The ability of the tested compounds to permeate the artificial membranes was classified according to the literature[33] as:
Artificial membrane permeability was assessed in the PAMPA assay and the permeability coefficient (Pe) was calculated from the following equation: Pe=C×-ln1-×Ca/Cr where C=Vd ×Va /(Vd+Va)×p×t
Membrane retention was analysed using mass balance between a compound left in the donor and acceptor compartments and calculated using the following equation: MB=Ca×Va+(Cd×Vd)/Cinitial×Vd where

Male CD-1 mice = assay: Hot-plate test after i.c.v. administration; assay type: in vivo; details: for ED50 (jumping response): mice
From the text: Male CD-1 mice (Harlan, Italy) weighing 25–30 g were used to determine the anti-nociceptive activity of the cyclopeptides in the hot-plate test after i.c.v. injection. Animal studies and research protocols were approved by the Service for Biotechnology and Animal Welfare of the Istituto Superiore di Sanità and authorized by the Italian Ministry of Health, according to Legislative Decree 26/14 (protocol number: 198/2013-B, 14 August 2013), which implemented the European Directive 2010/63/EEC on laboratory animal protection. Animal welfare was routinely checked by veterinarians from the Service for Biotechnology and Animal Welfare.
The hot-plate test was performed as described earlier. The intracerebroventricular (i.c.v.) injections were performed in a volume of 10 µl/animal, in the left brain ventricle of manually immobilized mice with a Hamilton microsyringe (50 µl) connected to a needle (diameter 0.5 mm). Peptides were also administrated in mice intravenously (i.v.) in a volume of 1 ml/kg. All compounds used for i.c.v. and i.v. administration were dissolved in saline. A transparent plastic cylinder (14 cm diameter, 31 cm height) was used to confine the mouse on the heated (55 ± 0.5 °C) surface of the plate. The animals were placed on the hot plate 5 min after the i.c.v. injection of saline (control) or peptides and the latencies to paw licking, rearing and jumping were measured at 5, 10, 20, 30, 45, 60, 90, and 120 min after administration of a peptide. A cut-off time of 240 s was used to avoid tissue injury. The percentage of the maximal possible effect (%MPE) was calculated as: %MPE = (t1 − t0)/(t2 − t0) × 100, where t0: control latency, t1: test latency, and t2: cut-off time. The median antinociceptive dose (ED50) was calculated according to the method of Litchfield and Wilcox[36].

Male balb/c mice [2] = assay: Prevention mouse model of TNBS-induced colitis (macroscopic damage, MPO activity); assay type: in vivo; details: 1 mg/kg i.p. once daily
Experimental: (§1) Male balb/c mice (Animal Facility of Nofer Institute of Occupational Medicine, Lodz, Poland) weighing 22–25 g were used to determine the anti-inflammatory and anti-nociceptive activity of cyclopeptides after i.p. administration. All procedures and protocols used in this study were approved by the Local Ethical Committee for Animal Research (protocol number: 20/ŁB708/2014, 26 May 2014). The study was carried out in accordance with the recommendations described in the Guide for the Care and Use of Laboratory Animals of the Medical University of Lodz, Poland. All experimental procedures were performed in accordance with the current guidelines for the care of laboratory animals (including the use of the 3Rs procedures) and in accordance with the ARRIVE guidelines.
(§2) The experimental colitis was induced by intracolonic (i.c.) administration of 2,4,6-trinitrobenzenesulfonic acid (TNBS). Mice were anesthetized with isoflurane (Aerrane, Baxter, Deerfield, IL) and TNBS at the dose of 4 mg per mouse (dissolved in 30% EtOH in saline) in the final volume of 150 µl, was injected into the colon through a catheter inserted 3 cm proximally from the anus. Mice were then maintained in an inclined position for 1 min to ensure the proper distribution of the inductor in the colon. Next, recovery was allowed with food and water supplied. Control animals received vehicle alone (30% ethanol in saline; TNBS replaced with equivolume water).
In the prevention mouse model of colitis, F-81 was injected intraperitoneally (i.p.) at the dose of 1 mg/kg in saline, in the volume of 100 µl, once daily, for 3 days, 15 min prior to TNBS administration. Mice were weighted daily and monitored for clinical symptoms of colitis, including diarrhoea and bloody stool. On day 4, mice were sacrificed by rapid cervical dislocation and the macroscopic damage score was assessed.
(§3) To perform the macroscopic damage score, the colon was removed immediately after euthanasia, opened longitudinally, rinsed with phosphate buffered saline (PBS), and examined using an established semiquantitative scoring system by adding individual scores for ulcer, colonic shortening, wall thickness, and the presence of haemorrhage, faecal blood, and diarrhoea, as described before. For scoring ulcer and colonic shortening the following scale was used: ulcer: 0.5 points for each 0.5 cm; shortening of the colon: 1 point for >15%, 2 points for >25% (based on a mean length of the colon in untreated mice). The wall thickness was measured in millimetres, a thickness of n mm corresponded to n scoring points. The presence of haemorrhage, faecal blood, or diarrhoea increased the score by 1 point for each additional feature.
(§4) The colon fragments (20–30 mg) were gently isolated from mice after total macroscopic damage score assessment, immediately washed with PBS, and homogenized in hexadecyltrimethylammonium bromide (HTAB) buffer (0.5% HTAB in 50 mM potassium phosphate buffer, pH 6.0; 50 mg of tissue/ml) using Ika Ultra Turrax Disperser T25 Digital 2 (Sigma Aldrich, Poznan, Poland). The homogenates were centrifuged (20 min, 13,200g, 4 °C) and the supernatants were transferred to the new test tubes. Then, 7 µl portions of supernatants were added on a 96-well plate, followed by 200 µl of 50 mM potassium phosphate buffer (pH = 6.0), containing 0.167 mg/ml of O-dianisidine hydrochloride and 0.05 µl of 1% H2O2. The absorbance was measured at 450 nm after 30 and 60 s (iMARK Microplate Reader, Biorad, UK). All measurements were done in triplicates.
(§5) The MPO activity was expressed in units/g of a wet tissue. One unit is determined as a quantity of enzyme able to convert 1 µmol of H2O2 to water in 1 min at room temperature. MPO activity units were calculated from the standard curve using purified peroxidase enzyme.

Male balb/c mice [3] = assay: Semi-chronic model of TNBS-induced colitis (macroscopic damage, MPO activity); assay type: in vivo
Experimental: as §1, §2
In the semi-chronic model, the curative potential of F-81 was tested. TNBS was administered on day 0 and from day 3 to day 6 the F-81 treatment (1 mg/kg in saline, 100 µl, i.p) was performed. On day 7, mice were sacrificed and the evaluation of colonic damage was performed.
as §3
as §4, with “Then, 7 µl portions of supernatants were added on a 96-well plate, followed by 200 µl of 50 mM potassium phosphate buffer (pH = 6.0), containing 0.167 mg/ml of O-dianisidine hydrochloride and 0.05 µl of 1% H2O2.” left out, “All measurements were done in triplicates.” left out
as §5

Male balb/c mice [4] = assay: Histology, microscopic total damage score of distal colon (prevention model of colitis); assay type: in vivo; details: 1 mg/kg
Experimental: Distal colon sections from the preventive mouse model of colitis were stapled flat, mucosal side-up, onto cardboard strips and fixed in 10% formalin for 24 h at 4 °C. Samples were dehydrated, embedded in paraffin, sectioned at 5 µm, and mounted onto slides. The sections were then stained with haematoxylin and eosin and Motic AE31 microscope (Ted Pella, Sweden) photographs were taken using a digital imaging system consisting of a digital camera (Moticam 2300, Ted Pella, Sweden) and image analysis software (Motic Images Plus 2.0, Germany).
The microscopic total damage score was assessed using the following parameters: the goblet cell depletion (presence = 1, absence = 0), crypt abscesses (presence = 1, absence = 0), the destruction of mucosal architecture (normal = 1, moderate = 2, extensive = 3), the extent of muscle thickening (normal =1, moderate = 2, extensive = 3), and the presence and degree of cellular infiltration (normal = 1, moderate = 2, transmural = 3).

Male balb/c mice [5] = assay: Mustard oil induced abdominal pain in mice with acute TNBS-induced colitis; assay type: in vivo; details: mustard oil i.c., 1 mg/kg i.p., counted for 20 min, control group 29.28 ± 2.52
Experimental: as §1
To assess the anti-nociceptive effect of F-81 in mice with acute colitis, intestinal inflammation was induced by TNBS instillation three days prior to the experiment. Abdominal pain was induced in inflamed mice by the i.c. injection of 1% mustard oil (MO, allyl isothiocyanate) in 70% EtOH in saline. Mice were separated into clear plastic boxes (20 × 20 × 15 cm) and allowed a 5 min recovery after MO administration. Spontaneous behaviours (licking and stretching the abdomen, squashing of lower abdomen against the floor, and abdominal retraction) were observed and counted for 20 min.

kappa-opioid receptor = tested on: kappa-opioid receptor; parameters: method as in PMID 26005537, PMID 25047937; details: cited from earlier work
[6] = parameters: method as in PMID 19995587; details: i.v. ref 35; cited from earlier work
[7] = read-out: Solubility Mean (mg/ml)

## Cc1cc(O)cc(C)c1C[C@H](N)C(=O)N[C@@H]1CCCCNC(=O)C[C@@H](C(N)=O)NC(=O)[C@H](Cc2ccccc2)NC(=O)[C@H](Cc2ccccc2)NC1=O [Peptide C-36, Dmt-c[D-Lys-Phe-Phe-Asp]NH2] (H-[Dmt][dK]FFD-NH2; lactam 2-5; N-terminus assumed)
Kinetic solubility assay; read-out: Solubility Mean
  solubility at 90 min: ≥ 500 µM
Kinetic solubility assay; [7]
  solubility at 90 min: ≥ 0.36 mg/mL
[1]; PAMPA, pH 7.4
  BBB permeability Pe ± SD: ≤0.58
[1]; PAMPA-BBB
  Classification (BBB permeation): Low permeation (Pe < 2.0 – low permeation)
[1]; PAMPA-BBB, membrane retention
  Mean (%) Mass balance ± SD: 97.87 ± 1.69%
Male CD-1 mice; hot-plate test, i.c.v.
  ED50 (jumping response): 57.78 ng

## Cc1cc(O)cc(C)c1C[C@H](N)C(=O)N[C@@H]1CCCCNC(=O)C[C@@H](C(N)=O)NC(=O)[C@H](Cc2ccc(C(F)(F)F)cc2)NC(=O)[C@H](Cc2ccccc2)NC1=O [Peptide F-81, Dmt-c[D-Lys-Phe-p-CF3-Phe-Asp]NH2] (H-[Dmt][dK]F[Phe(4-CF3)]D-NH2; lactam 2-5 (inferred))
Kinetic solubility assay; read-out: Solubility Mean
  solubility at 90 min: 345 µM
Kinetic solubility assay; [7]
  solubility at 90 min: 0.27 mg/mL
[1]; PAMPA, pH 7.4
  BBB permeability Pe ± SD: ≤0.58
[1]; PAMPA-BBB
  Classification (BBB permeation): Low permeation (Pe < 2.0 – low permeation)
[1]; PAMPA-BBB, membrane retention
  Mean (%) Mass balance ± SD: 95.75 ± 1.43%
Male CD-1 mice; F-81 10 ng/animal i.c.v., NTL 1 µg/animal
  Anti-nociceptive effect with co-administered naltrindole (delta antagonist): did not modify
Male CD-1 mice; F-81 10 ng/animal i.c.v., nor-BNI 5 µg/animal i.c.v.
  Anti-nociceptive effect with co-administered norbinaltorphimine (kappa antagonist): did not modify
Male CD-1 mice; F-81 10 ng/animal i.c.v., β-FNA 1 µg/animal
  Anti-nociceptive effect with co-administered β-funaltrexamine (mu antagonist): blocked
Male CD-1 mice; hot-plate test, i.c.v., from the ED50 values
  Anti-nociceptive potency relative to C-36: approximately threefold
Male CD-1 mice; hot-plate test, i.c.v.
  ED50 (jumping response): 17.27 ng
Male balb/c mice [2]; 3 days, TNBS group 5.83
  Macroscopic damage score: 4.07
Male balb/c mice [2]; TNBS group 1.08 ± 0.12, no difference
  Intestinal wall thickness: 0.95 ± 0.07 mm
Male balb/c mice [2]; TNBS group 2.06 ± 0.22
  Ulcer score: 1.43 ± 0.17
Male balb/c mice [2]; TNBS group 7.91 ± 0.23
  Colon width: 6.09 ± 0.53
Male balb/c mice [2]; TNBS group 8.01 ± 0.39, no difference
  Colon length: 8.23 ± 0.24
Male balb/c mice [2]; TNBS group 24.42 ± 2.92
  Inflammation area: 19.56 ± 2.16
Male balb/c mice [2]; colon tissue, TNBS group 11.82 ± 1.72
  MPO activity: 3.65 ± 0.87 units/g of a wet tissue
Male balb/c mice [3]; 1 mg/kg i.p.
  Colon thickness, width, or length versus TNBS-treated group: No differences
Male balb/c mice [3]; 1 mg/kg i.p. day 3 to day 6, TNBS group 4.15 ± 0.54
  Macroscopic damage score: 2.18 ± 0.40
Male balb/c mice [3]; 1 mg/kg i.p., TNBS group 1.30 ± 0.12
  Ulcer score: 0.92 ± 0.83
Male balb/c mice [3]; 1 mg/kg i.p., TNBS group 18.49 ± 3.95
  Inflammation area: 12.23 ± 1.56
Male balb/c mice [3]; colon tissue, 1 mg/kg i.p., TNBS group 8.26 ± 0.15
  MPO activity: 7.88 ± 0.24 units/g of a wet tissue
Male balb/c mice [4]
  Microscopic score: significantly improved
Male balb/c mice [5]
  Number of spontaneous pain behaviours: 6.36 ± 1.98
kappa-opioid receptor
  kappa-affinity: significant kappa-affinity

## Cn1c(=O)c2[nH]cnc2n(C)c1=O [Theophylline, theophylline, reference compound]
[1]; PAMPA, pH 7.4
  Mean (%) Mass balance ± SD: 98.21 ± 3.65%

## Tyr-c[D-Lys-Phe-Phe-Asp]NH2
[6]
  Ability to reach the brain after i.v. administration: could reach the brain after i.v. administration
